Laboratory results as given in patent publication US20240199698A1, “PEPTIDE AMPHIPHILE COMPOSITIONS AND METHODS OF USE THEREOF” (UAB RESEARCH FOUNDATION, priority 2022, published 2024).

What was measured:
[1] = test system: HAECs; test: hAEC proliferation, CyQUANT Cell Proliferation Assay; assay type: cell-based, human; settings: sirolimus 0-50 nM, with or without 10 -9 M NO, three days
Description: Preparation of NO. The peptide amphiphiles (PA-C16-CA and PA-C16-K5) were synthesized, respectively. These two distinct PAs were mixed in a 9:1 ratio (YIGSR:KKKKK) to form PA-C16-YK5, which was subsequently reacted with NO gas to form PA-YK-NO. The released NO was collected, and NO concentration was measured using Greiss Assay.
Treatment on hAEC. hAECs were seeded in a 48-well plate at a cell density of 2000 per well and allowed to attach for 24 h (hereafter the “endothelium”). For the sirolimus-only group, the sirolimus at concentrations of 0, 0.25, 0.1, 0.5, 1, and 50 nM were added to the hAECs, and then the hAECs were cultured for another three days. Similarly, for the dual-treatment group, sirolimus at similar concentrations was combined with 10 -9 M NO and added to hAEC. Then, the proliferation of hAEC under different conditions was assessed by CyQUANT Cell Proliferation Assay after three days. Briefly, the culture medium in each well was removed, and the cells in the tissue culture plate were frozen overnight at −80° C.; then, the dye in the lysis buffer was added after completely thawing at room temperature. After 30 min incubation, the fluorescent signal was measured using a microplate reader at 485/528 nm.

[2] = cited from earlier work
[3] = test system: patients with myocardial infarction or chronic coronary disease; settings: cited from earlier work
[4] = test system: U937 cells; test: Effects of colchicine on foam cell formation (Bodipy); assay type: cell-based; settings: tested 0, 2, 5, 10, 20, 40 nM; Ox-LDL 100 ug/mL, 3 days
Description: Experimental approach: U937 cells with a cell density of 5000 cell/well were seeded in a 48 well plate, then the colchicine with a selected concentration range from 0 to 40 nM, that is 0, 2 nM, 5 nM, 10 nM, 20 nM, and 40 nM, were added into each well-containing monocytes and RAMPI monocyte culture medium. Then each well were added with M-CSF (100 ng/mL), GM-CSF (25 ng/mL) and INF-γ (100 ng/mL) for macrophage formation. After 7 days of culture, then Ox-LDL (100 ug/mL) was added to each well and cultured for 3 days. After 3 days of culture, the effect of […] on foam cell formation was assessed by using Bodipy. It was shown that the suppression of foam cells was observed when the colchicine concentration is above 2 nM, that is, at the concentrations of 5 nM, 10 nM, 20 nM, and 40 nM (FIG. 18B)

[5] = test system: diseased hAECs (TNF-α stimulated); test: Effects of colchicine on diseased EC function (NO production, DAF-FM); assay type: cell-based, human; settings: tested 10, 20, 40, 80, 160 nM; three days; versus diseased hAECs without colchicine
Description: Experiment approach: hAECs were seeded in 48-well plate at a cell density of 5000 per well and allowed to attach and grow for 24 h to create a stable confluent monolayer of hAECs (hereafter the “endothelium”). Then, the diseased hAECs (“diseased endothelium”) were obtained by stimulating the hAECs with TNF-α (20 ng/mL) for 18 hours. After that, the colchicine at concentrations of 10 nM, 20 nM, 40 nM, 80 nM, and 160 nM was added to the hAECs after TNF-α stimulation, and then the hAECs were cultured for another three days. Then, the diseased hAEC function was assessed by measuring NO production by hAECs using DAF-FM (4-amino-5-methylamino-2′,7′-difluororescein). DAF-FM is essentially nonfluorescent until they react with NO to form a fluorescent benzotriazole. DAF-FM is cell-permeant and passively diffuses across cellular membranes. Once inside cells, it is de-acetylated by intracellular esterases. The fluorescence quantum yield of DAF-FM is —0.005, but increases about 160-fold, to ˜0.81, after reacting with nitric oxide. With excitation/emission maxima of 495/515 nm, DAF-FM can be detected by any instrument that can detect fluorescein, including fluorescent microplate readers. […] After the de-esterification, the fluorescence intensity of DAF-FM in hAECs was measured at (excitation/emission) 495/515 nm.

Row | SMILES | hAEC proliferation [1] | solubility in water [2] | composite endpoint of cardiovascular death, resuscitated cardiac arrest, myocardial infarction, stroke, or urgent hospitalization for angina (COLCOT) ([3]; 0.5 mg once daily versus placebo, myocardial infarction within 30 days) | risk of acute cardiovascular events (LoDoCo) ([3]; 0.5 mg once daily, chronic coronary disease, open-label) | primary composite endpoint of cardiovascular mortality, myocardial infarction, ischemic stroke, and urgent revascularization (meta-analysis) ([3]; four major randomized controlled trials) | colchicine concentration at which suppression of foam cells was observed [4] | colchicine concentration at which NO production of diseased hAECs increased [5]
1 | CO[C@H]1C[C@@H]2CC[C@@H](C)[C@@](O)(O2)C(=O)C(=O)N2CCCC[C@H]2C(=O)O[C@H]([C@H](C)C[C@@H]2CC[C@@H](O)[C@H](OC)C2)CC(=O)[C@H](C)/C=C(\C)[C@@H](O)[C@@H](OC)C(=O)[C@H](C)C[C@H](C)/C=C/C=C/C=C/1C [Sirolimus] | reduced the proliferation of hAECs dose-dependently | virtually insoluble in water | – | – | – | – | –
2 | COc1cc2c(c(OC)c1OC)-c1ccc(OC)c(=O)cc1[C@@H](NC(C)=O)CC2 [colchicine, N[5′,6,7,9-tetrahydro-1,2,3,10-tetratmethoxy 9-oxobenzo[a]heptalen-7-yl], (S)-acetamide] | – | – | lower among those who received 0.5 mg of colchicine once daily than among those who received placebo | lower among those who received 0.5 mg of colchicine once daily than those who did not receive colchicine | significant reduction | above 2 nM | above 20 nM
